According to patent US20260234144A1 (TAY THERAPEUTICS LIMITED, priority 2023, published 2026):

Test system: R223X stop codon in the mutated luciferase gene, ADXC8 luciferase reporter cell line
Test: cells
Assay type: cell-based
Details: 24 h, ADXC8 cells, 24 hours; for Emax: read-out: Fold Over Control, maximum fold response relative to 200 μM G418; for EC (100% of 200 uM G418 response): read-out: pC100%, negative logarithm of the concentration giving the same response as 200 μM G418

Compound: Cc1cc(C)c2c(N)nc(NCCN3CC(F)(F)C3)nc2n1 [Example 169]
- Emax: 0 to 100%
- EC (100% of 200 uM G418 response): > 31.6 µM

Compound: CC(O)c1ccc2c(N)nc(NC3CCN(C)CC3)nc2n1 (centres unmarked) [Example 288]
- Emax: 100 to 3000%
- EC (100% of 200 uM G418 response): 10 to 100 µM

Compound: CN1CCC(Nc2nc(N)c3ccc(-c4ccc(CO)cc4)nc3n2)CC1 [Example 94]
- Emax: 100 to 3000%
- EC (100% of 200 uM G418 response): 10 to 100 µM

Compound: Cc1cc(C)c2c(N)nc(N[C@H]3CCNC[C@H]3F)nc2n1 [Example 587]
- Emax: 100 to 3000%
- EC (100% of 200 uM G418 response): 1 to 10 µM

Compound: Cc1cc(C)c2c(N)nc(NCCN3CCC3)nc2n1 [Example 184]
- Emax: 100 to 3000%
- EC (100% of 200 uM G418 response): 10 to 100 µM

Compound: Cc1cc(C)c2c(NC(C)C)nc(NC3CCN(C)CC3)nc2n1 [Example 264]
- Emax: 100 to 3000%
- EC (100% of 200 uM G418 response): 1 to 10 µM

Compound: CN1CCC(Nc2nc(N)c3ccc(-c4ccc(C#N)cc4)nc3n2)CC1 [Example 95]
- EC (100% of 200 uM G418 response): 10 to 100 µM

Compound: Cc1nc2nc(NC3CCN(C)CC3)nc(N)c2c2ccccc12 [Example 9, 6-methyl-N^3-(1-methylpiperidin-4-yl)pyrimido[4,5-c]isoquinoline-1,3-diamine]
- Emax: 100 to 3000%
- EC (100% of 200 uM G418 response): 1 to 10 µM

Compound: Cc1nc2nc(NC3CCN(Cc4cc(F)ccc4O)CC3)nc(N)c2c2c1CCC2 [Example 535]
- Emax: 100 to 3000%
- EC (100% of 200 uM G418 response): 0.1 to 1 µM

Compound: Cc1cc(C)c2c(N)nc(N[C@H]3CN(C)C[C@@H]3O)nc2n1 [Example 226, (3S,4S)-4-((4-amino-5,7-dimethylpyrido[2,3-d]pyrimidin-2-yl)amino)-1-methylpyrrolidin-3-ol]
- Emax: 100 to 3000%
- EC (100% of 200 uM G418 response): 0.1 to 1 µM

Compound: Cc1cc(C)c2c(N)cc(N[C@@H]3CCNC3)nc2n1 [Example 255, (R)-5,7-dimethyl-N^2-(pyrrolidin-3-yl)-1,8-naphthyridine-2,4-diamine]
- EC (100% of 200 uM G418 response): 0.1 to 1 µM

Compound: CNc1nc(N[C@H]2CNC[C@@H]2OC)nc2nc3c(c(C)c12)CCC3 [Example 623]
- EC (100% of 200 uM G418 response): 0.1 to 1 µM

Compound: CNS(=O)(=O)c1ccc(CN2CCC(Nc3nc(N)c4c(C)c5c(nc4n3)CCC5)CC2)cc1 [Example 666]
- Emax: 100 to 3000%
- EC (100% of 200 uM G418 response): 1 to 10 µM

Compound: CNc1cc(N[C@H]2CNC[C@H]2F)nc2nc3c(c(C)c12)CCC3 [Example 633]
- EC (100% of 200 uM G418 response): 1 to 10 µM

Compound: Cc1cc(C)c2c(NC3CCC3)nc(NC3CCN(C)CC3)nc2n1 [Example 321]
- Emax: 0 to 100%
- EC (100% of 200 uM G418 response): > 31.6 µM

Compound: CN1CCC(Nc2nc(N)c3ccc(-c4cccnc4)nc3n2)CC1 [Example 25, N^2-(1-methylpiperidin-4-yl)-7-(pyridin-3-yl)pyrido[2,3-d]pyrimidine-2,4-diamine]
- Emax: 100 to 3000%
- EC (100% of 200 uM G418 response): 10 to 100 µM

Compound: Cc1c2c(nc3nc(N[C@H]4CNC[C@@H]4O)nc(N(C)C)c13)CCC2 [Example 553]
- Emax: 100 to 3000%
- EC (100% of 200 uM G418 response): 10 to 100 µM

Compound: CC(=O)Nc1ccc(-c2ccc3c(N)nc(NC4CCN(C)CC4)nc3n2)cc1 [Example 73]
- Emax: 0 to 100%
- EC (100% of 200 uM G418 response): > 100 µM

Compound: CSc1ccc(-c2ccc3c(N)nc(NC4CCN(C)CC4)nc3n2)cc1 [Example 103]
- EC (100% of 200 uM G418 response): 1 to 10 µM

Compound: Cc1cc(C)c2c(N)nc(NCC(C)(C)CN(C)C)nc2n1 [Example 149]
- Emax: 0 to 100%
- EC (100% of 200 uM G418 response): > 31.6 µM

Compound: CCNc1nc(N[C@@]23CNC[C@@H]2C3)nc2nc(C)cc(C)c12 [Example 419]
- EC (100% of 200 uM G418 response): 0.1 to 1 µM

Compound: Cc1cc(C)c2c(N)nc(NC3CCN(Cc4ccc(C#N)cc4F)CC3)nc2n1 [Example 571]
- Emax: 100 to 3000%
- EC (100% of 200 uM G418 response): 1 to 10 µM

Compound: Cc1cc(C)c2c(N)nc(NC3CCNC(C)C3)nc2n1 (centres unmarked) [Example 175]
- Emax: 100 to 3000%
- EC (100% of 200 uM G418 response): 1 to 10 µM

Compound: CN1CCC(Nc2nc(N)c3cc(C4CCCC4)cnc3n2)CC1 [Example 243, 6-cyclopentyl-N^2-(1-methylpiperidin-4-yl)pyrido[2,3-d]pyrimidine-2,4-diamine]
- Emax: 100 to 3000%
- EC (100% of 200 uM G418 response): 10 to 100 µM

Compound: Cc1cc(C)c2c(N)nc(NCCCNCC(F)F)nc2n1 [Example 193]
- Emax: 100 to 3000%
- EC (100% of 200 uM G418 response): 10 to 100 µM
